According to patent US20070197509A1, “Compositions and methods for modulating gated ion channels” (PainCeptor Pharma Corporation, priority 2005, published 2007):
Entries after “also recorded” stand apart in the source; their conditions may differ.

These molecules were tested against T1, hASIC1a (Homo sapiens, UniProt P78348) (assay: Two-electrode voltage clamp in Xenopus laevis oocytes expressing hASIC1a (OpusExpress)). Conditions: 30 uM, OpusExpress; kind of effect not given.
T1 sequence (P78348 1-528): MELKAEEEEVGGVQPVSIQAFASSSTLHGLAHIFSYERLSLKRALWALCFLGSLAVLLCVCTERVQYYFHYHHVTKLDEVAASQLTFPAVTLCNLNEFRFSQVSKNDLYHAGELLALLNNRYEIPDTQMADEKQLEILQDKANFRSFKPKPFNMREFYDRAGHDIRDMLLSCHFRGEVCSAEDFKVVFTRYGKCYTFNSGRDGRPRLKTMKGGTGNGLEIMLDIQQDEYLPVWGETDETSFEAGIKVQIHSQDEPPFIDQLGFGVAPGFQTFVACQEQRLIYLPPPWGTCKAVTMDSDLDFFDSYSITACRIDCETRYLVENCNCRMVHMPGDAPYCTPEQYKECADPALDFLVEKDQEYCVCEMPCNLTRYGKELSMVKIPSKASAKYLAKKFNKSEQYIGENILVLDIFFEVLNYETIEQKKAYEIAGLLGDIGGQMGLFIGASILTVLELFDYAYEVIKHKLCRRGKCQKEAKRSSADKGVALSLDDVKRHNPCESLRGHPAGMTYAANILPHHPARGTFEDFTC
Assay type: cell-based
Set-up: expressed in transfected cells; host or cells: Xenopus laevis oocytes, nuclear microinjection of cDNA (e.g. in pCDNA3)
Description: Two-electrode voltage clamp electrophysiological assays in Xenopus laevis oocytes expressing gated ion channels are performed as follows:
Oocytes are surgically removed from adult Xenopus laevis and treated for 2 h at room temperature with 1 mg/ml type I collagenase (Sigma) in Barth's solution under mild agitation. Selected oocytes at stage IV-V are defolliculated manually before nuclear microinjection of 2.5-5 ng of a suitable expression vector, such as pCDNA3, comprising the nucleotide sequence encoding a gated ion channel subunit protein. In such an experiment, the oocytes express homomultimeric proton-gated ion channels on their surface. In an alternate experiment, one, two, three or more vectors comprising the coding sequences for distinct gated ion channel subunits are co-injected in the oocyte nuclei. In the latter case, oocytes express heteromultimeric proton-gated ion channels. […] Once impaled with the microelectrodes, oocytes are continuously superfused at 10-12 ml/min with a modified Ringer's solution containing 97 mM NaCl, 2 mM KCl, 1.8 mM CaCl2, and 10 mM HEPES brought to pH 7.4 with NaOH (Control Ringer). Test Ringer solution is prepared by replacing HEPES with MES and adjusting the pH to the desired acidic value. Compounds of the present invention are prepared in both the Control and Test Ringer solutions and applied to oocytes at room temperature through a computer-controlled switching valve system. […] Similarly, recordings can also be acquired in an automated multichannel oocytes system as the OpusExpress™ (Molecular Devices, Sunnyvale, Calif., USA).
Recordings were acquired from oocytes expressing homomeric hASIC1a using a two-electrode voltage-clamp configuration procedure as described herein.

Row | SMILES | approx. % at 30 uM (OX)
1 | Cc1cc(OC2CCN(Cc3ccc(Cl)cc3)CC2)c2ccccc2n1 [Compound 5, 4[1-(4-chloro-benzyl)-piperidin-4-yloxy]-2-methyl-quinoline] | approx. 15% at 30 uM (OX)

Same assay, conditions: OpusExpress (OX), Tables A-F; h1a printed in some cells only

Row | SMILES | Biological Data (IC50 uM) h1a (OX)
2 | c1ccc(CN2CCC(Oc3cc(-c4ccccc4)nc4ccccc34)CC2)cc1 [Compound 3, 4-(1-benzyl-piperidin-4-yloxy)-2-phenyl-quinoline] | Not Active (OX)
3 | Cc1cc(OC2CCN(C(=O)c3ccccc3)CC2)c2ccccc2n1 [Compound 6, [4-(2-methyl-quinolin-4-yloxy)-piperidin-1-yl]-phenyl-methanone] | Not Active (OX)
4 | Cc1cc(OC2CCN(Cc3ccccc3)CC2)c2ccc(Cl)cc2n1 [Compound 9, 4-(1-benzyl-piperidin-4-yloxy)-7-chloro-2-methyl-quinoline] | Not Active (OX)
5 | FC(F)(F)c1cc(OC2CCN(Cc3ccccc3)CC2)c2cccc(C(F)(F)F)c2n1 [Compound 10, 4-(1-benzyl-piperidin-4-yloxy)-2,8-bis-trifluoromethyl-quinoline] | Not Active (OX)
6 | Clc1ccc2c(OC3CCN(Cc4ccccc4)CC3)ccnc2c1 [Compound 11, 4-(1-benzyl-piperidin-4-yloxy)-7-chloro-quinoline] | Not Active (OX)
7 | Cc1cc(OC2CCN(C(=O)OC(C)(C)C)CC2)c2ccccc2n1 [Compound 12, 4-(2-methyl-quinolin-4-yloxy)-piperidine-1-carboxylic acid tert butyl ester] | Not Active (OX)
8 | Cc1cc(OC2CCN(Cc3ccccc3)CC2)c2cccc(C)c2n1 [Compound 14, 4-(1-benzyl-piperidin-4-yloxy)-2,8-dimethyl-quinoline] | Not Active (OX)
9 | Cc1cc(OC2CCN(CC(C)(C)C)CC2)c2ccccc2n1 [Compound 15, 4-[1-(2,2-dimethyl-propyl)-piperidin-4-yloxy]-2-methyl-quinoline] | Not Active (OX)
10 | CCc1nc(NC2CCN(Cc3ccccc3)CC2)c2ccccc2n1 [Compound 33, (1-benzyl-piperidin-4-yl)-(2-ethyl-quinazolin-4-yl)-amine] | Not Active
11 | COc1ccc(-c2cc(C(=O)N3CCN(CCc4ccccc4)CC3)c3ccccc3n2)cc1OC [Compound 42, [2-(3,4-dimethoxy-phenyl)-quinolin-4-yl]-(4-phenethyl-piperazin-1-yl)-methanone] | Not Active (OX)
12 | COc1ccc(-c2cc(C(=O)N3CCN(Cc4ccc5c(c4)OCO5)CC3)c3cc(Cl)ccc3n2)c(O)c1 [Compound 45, (4-benzo[1,3]dioxol-5-ylmethyl-piperazin-1-yl)-[6-chloro-2-(2-hydroxy-4-methoxy-phenyl)-quinolin-4-yl]-methanone] | Not Active (OX)
13 | Cc1cc(N2CCN(C(=O)OC(C)(C)C)CC2)c2ccccc2n1 [Compound 59, 4-(2-methyl-quinolin-4-yl)-piperazine-1-carboxylic acid tert-butyl ester] | Not Active (OX)
14 | Cc1cc(N2CCN(c3ccccc3C#N)CC2)c2ccccc2n1 [Compound 60, 2-[4-(2-methyl-quinolin-4-yl)-piperazin-1-yl]-benzonitrile] | Not Active (OX)
15 | Cc1cc(N2CCN(c3ccc([N+](=O)[O-])cc3)CC2)c2ccccc2n1 [Compound 61, 2-methyl-4-[4-(4-nitro-phenyl)-piperazin-1-yl]-quinoline] | Not Active (OX)
16 | O=C(O)c1ccc(Nc2ncnc3ccccc23)cc1 [Compound 102, 4-(quinazolin-4-ylamino)-benzoic acid] | Not Active (OX)
17 | O=C(O)c1ccc(Nc2ncnc3ccc([N+](=O)[O-])cc23)cc1 [Compound 103, 4-(6-nitro-quinazolin-4-ylamino)-benzoic acid] | Not Active (OX)
18 | Cc1ccc(-c2nc(Nc3ccccc3)c3ccccc3n2)cc1 [Compound 104, Phenyl-(2-p-tolyl-quinazolin-4-yl)-amine] | Not Active (OX)
19 | Cc1ccc(-c2nc(NCCCC(=O)O)c3ccccc3n2)cc1 [Compound 105, 4-(2-p-tolyl-quinazolin-4-ylamino)-butyric acid] | Not Active (OX)
20 | Cc1ccc(-c2nc(N(C)c3ccc(C(=O)O)cc3)c3ccccc3n2)cc1 [Compound 106, 4-[methyl-(2-p-tolyl-quinazolin-4-yl)-amino]-benzoic acid] | Not Active (OX)
21 | Cc1ccc(-c2nc(NC3CCN(Cc4ccccc4)CC3)c3ccc(Cl)cc3n2)cc1 [Compound 108, (1-benzyl-piperidin-4-yl)-(7-chloro-2-p-tolyl-quinazolin-4-yl)-amine] | Not Active (OX)
22 | Cc1ccc(-c2nc(OCCCCCl)c3cc([N+](=O)[O-])ccc3n2)cc1 [Compound 109, 4-(4-chloro-butoxy)-6-nitro-2-p-tolyl-quinazoline] | Not Active (OX)
23 | Cc1ccc(-c2nc(N3CCCCC3)c3ccc(Cl)cc3n2)cc1 [Compound 110, 7-chloro-4-piperidin-1-yl-2-p-tolyl-quinazoline] | Not Active (OX)
24 | CCc1nc(NCCOC)c2ccccc2n1 [Compound 111, (2-ethyl-quinazolin-4-yl)-(2-methoxy-ethyl)-amine] | Not Active (OX)

Same assay, conditions: OpusExpress (OX), Tables A-F; h1a printed in some cells only; read-out: Biological Data (IC50 uM) h1a (OX)

Row | SMILES | IC50 [µM]
25 | Cc1cc(OCCCN(C)Cc2ccccc2)c2ccccc2n1 [Compound 1, benzyl-methyl-[3-(2-methyl-quinolin-4-yloxy)-propyl]-amine] | > 30
26 | Cc1cc(OC2CCN(CCc3ccccc3)CC2)c2ccccc2n1 [Compound 2, 2-methyl-4-(1-phenethyl-piperidin-4-yloxy)-quinoline] | > 30
27 | Cc1cc(OC2CCN(C)CC2)c2ccccc2n1 [Compound 4, 2-methyl-4-(1-methyl-piperidin-4-yloxy)-quinoline] | > 30
28 | Cc1cc(OC2CCN(Cc3ccccc3)CC2)c2cc(Br)ccc2n1 [Compound 7, 4-(1-benzyl-piperidin-4-yloxy)-6-bromo-2-methyl-quinoline] | 10 to 20
29 | COc1ccc2nc(C)cc(OC3CCN(Cc4ccccc4)CC3)c2c1 [Compound 8, 4-(1-benzyl-piperidin-4-yloxy)-6-methoxy-2-methyl-quinoline] | > 30
30 | FC(F)(F)c1cc(OC2CCN(Cc3ccccc3)CC2)c2ccccc2n1 [Compound 13, 4-(1-benzyl-piperidin-4-yloxy)-2-trifluoromethyl-quinoline] | 20 to 35
31 | Cc1cc(OC2CCN(CC(C)C)CC2)c2ccccc2n1 [Compound 29, 4-(1-isobutyl-piperidin-4-yloxy)-2-methyl-quinoline] | > 30
32 | CCc1nc(N(C)C2CCN(Cc3ccccc3)CC2)c2ccccc2n1 [Compound 32, (1-benzyl-piperidin-4-yl)-(2-ethyl-quinazolin-4-yl)-methyl-amine] | 15 to 25

Same assay, conditions: OpusExpress, two-electrode voltage clamp, dose-response

Row | SMILES | effect on hASIC1a current evoked by pH 6.5 in oocytes (FIGS. 4A-4D)
33 | Cc1cc(OC2CCN(Cc3ccccc3)CC2)c2cc(Br)ccc2n1 [Compound 7, 4-(1-benzyl-piperidin-4-yloxy)-6-bromo-2-methyl-quinoline] | effective modulators; also recorded: dose-dependent reduction
34 | CCc1nc(N(C)C2CCN(Cc3ccccc3)CC2)c2ccccc2n1 [Compound 32, (1-benzyl-piperidin-4-yl)-(2-ethyl-quinazolin-4-yl)-methyl-amine] | effective modulators; also recorded: dose-dependent reduction

Same assay, conditions: Table H; read-out: IC50 (μM) Opus Express (h1a)

Row | SMILES | IC50 [µM]
35 | Cc1cc(OC2CCN(Cc3ccccc3)CC2)c2cc(Br)ccc2n1 [Compound 7, 4-(1-benzyl-piperidin-4-yloxy)-6-bromo-2-methyl-quinoline] | 13.2
36 | FC(F)(F)c1cc(OC2CCN(Cc3ccccc3)CC2)c2ccccc2n1 [Compound 13, 4-(1-benzyl-piperidin-4-yloxy)-2-trifluoromethyl-quinoline] | 27.6
37 | Cc1cc(OC2CCN(Cc3ccccc3)CC2)c2cccc(F)c2n1 [Compound 24, 4-(1-benzyl-piperidin-4-yloxy)-8-fluoro-2-methyl-quinoline] | 1.25
38 | CCc1nc(N(C)C2CCN(Cc3ccccc3)CC2)c2ccccc2n1 [Compound 32, (1-benzyl-piperidin-4-yl)-(2-ethyl-quinazolin-4-yl)-methyl-amine] | 20.7
